This is an account of results in the NIST ThermoML archive (doi:10.1016/j.fluid.2010.06.007).

± gives the expanded uncertainty stated by the source.

The conditions of this data set: 298.15 K; 101.33 kPa; Liquid; Vibrating tube method.

As for `C1CCCCC1` [cyclohexane], the molar volume is reported as 0.0001088 ± 5e-08 m3/mol. `C1CCOC1` [tetrahydrofuran]: the molar volume came out at 8.174e-05 ± 4e-08 m3/mol. The same measure for `ClC(Cl)Cl` [trichloromethane]: 8.071e-05 ± 4e-08 m3/mol.
